Experimental data: US11739098B2 (BRISTOL-MYERS SQUIBB COMPANY, priority 2017, dated 2023)

Key:
Type in all cases: cell-based
human TLR8 = target: T1, human TLR8 (Homo sapiens, UniProt Q9NR97); experiment: TLR8 inhibition reporter assay (HEK-Blue cells, SEAP reporter, R848 stimulation); conditions: HEK-Blue cells overexpressing human TLR8, SEAP reporter, R848 15.9 μM
T1 construct: host or cells: HEK-Blue cells (HEK293-derived reporter line)
T1 sequence (Q9NR97 27-1041): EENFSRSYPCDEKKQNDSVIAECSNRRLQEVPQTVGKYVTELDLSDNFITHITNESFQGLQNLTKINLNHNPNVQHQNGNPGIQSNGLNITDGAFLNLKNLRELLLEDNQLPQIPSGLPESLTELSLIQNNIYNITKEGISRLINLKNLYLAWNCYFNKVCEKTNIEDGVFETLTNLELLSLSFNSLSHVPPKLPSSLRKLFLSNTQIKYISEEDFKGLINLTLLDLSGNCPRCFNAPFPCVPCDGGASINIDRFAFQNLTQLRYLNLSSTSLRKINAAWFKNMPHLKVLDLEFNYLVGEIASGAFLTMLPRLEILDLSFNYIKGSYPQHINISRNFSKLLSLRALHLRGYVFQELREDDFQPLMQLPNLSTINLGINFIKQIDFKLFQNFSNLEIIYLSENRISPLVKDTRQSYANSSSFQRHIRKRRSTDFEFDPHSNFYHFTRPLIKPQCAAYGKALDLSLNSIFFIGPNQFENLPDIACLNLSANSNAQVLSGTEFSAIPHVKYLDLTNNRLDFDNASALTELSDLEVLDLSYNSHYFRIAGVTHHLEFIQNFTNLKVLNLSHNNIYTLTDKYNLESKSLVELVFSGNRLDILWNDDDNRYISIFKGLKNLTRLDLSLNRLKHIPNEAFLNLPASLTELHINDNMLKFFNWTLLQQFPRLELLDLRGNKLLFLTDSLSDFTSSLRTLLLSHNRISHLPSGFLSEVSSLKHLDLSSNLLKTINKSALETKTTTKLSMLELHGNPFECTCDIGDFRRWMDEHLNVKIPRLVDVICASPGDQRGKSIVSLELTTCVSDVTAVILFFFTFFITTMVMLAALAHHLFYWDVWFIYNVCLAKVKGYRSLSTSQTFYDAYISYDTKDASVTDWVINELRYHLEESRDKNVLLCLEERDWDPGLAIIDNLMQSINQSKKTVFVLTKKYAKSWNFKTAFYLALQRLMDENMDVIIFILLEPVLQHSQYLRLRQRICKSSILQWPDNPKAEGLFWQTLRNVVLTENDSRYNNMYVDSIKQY
Outline: (§1)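 Percent inhibition of agonist-induced SEAP secretion in HEK-Blue cells after 22 h at 37 °C. Stimuli: 7.5 μM gardiquimod, 15.9 μM R848, 5 nM ODN2006 for TLR7, TLR8 and TLR9, added after 30 min compound exposure over a 0.05 nM–50 μM range.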

human TLR7 = target: T2, human TLR7 (Homo sapiens, UniProt Q9NYK1); experiment: TLR7 inhibition reporter assay (HEK-Blue cells, SEAP reporter, gardiquimod stimulation); conditions: HEK-Blue cells overexpressing human TLR7, SEAP reporter, gardiquimod 7.5 μM
T2 construct: host or cells: HEK-Blue cells (HEK293-derived reporter line)
T2 sequence (Q9NYK1 27-1049): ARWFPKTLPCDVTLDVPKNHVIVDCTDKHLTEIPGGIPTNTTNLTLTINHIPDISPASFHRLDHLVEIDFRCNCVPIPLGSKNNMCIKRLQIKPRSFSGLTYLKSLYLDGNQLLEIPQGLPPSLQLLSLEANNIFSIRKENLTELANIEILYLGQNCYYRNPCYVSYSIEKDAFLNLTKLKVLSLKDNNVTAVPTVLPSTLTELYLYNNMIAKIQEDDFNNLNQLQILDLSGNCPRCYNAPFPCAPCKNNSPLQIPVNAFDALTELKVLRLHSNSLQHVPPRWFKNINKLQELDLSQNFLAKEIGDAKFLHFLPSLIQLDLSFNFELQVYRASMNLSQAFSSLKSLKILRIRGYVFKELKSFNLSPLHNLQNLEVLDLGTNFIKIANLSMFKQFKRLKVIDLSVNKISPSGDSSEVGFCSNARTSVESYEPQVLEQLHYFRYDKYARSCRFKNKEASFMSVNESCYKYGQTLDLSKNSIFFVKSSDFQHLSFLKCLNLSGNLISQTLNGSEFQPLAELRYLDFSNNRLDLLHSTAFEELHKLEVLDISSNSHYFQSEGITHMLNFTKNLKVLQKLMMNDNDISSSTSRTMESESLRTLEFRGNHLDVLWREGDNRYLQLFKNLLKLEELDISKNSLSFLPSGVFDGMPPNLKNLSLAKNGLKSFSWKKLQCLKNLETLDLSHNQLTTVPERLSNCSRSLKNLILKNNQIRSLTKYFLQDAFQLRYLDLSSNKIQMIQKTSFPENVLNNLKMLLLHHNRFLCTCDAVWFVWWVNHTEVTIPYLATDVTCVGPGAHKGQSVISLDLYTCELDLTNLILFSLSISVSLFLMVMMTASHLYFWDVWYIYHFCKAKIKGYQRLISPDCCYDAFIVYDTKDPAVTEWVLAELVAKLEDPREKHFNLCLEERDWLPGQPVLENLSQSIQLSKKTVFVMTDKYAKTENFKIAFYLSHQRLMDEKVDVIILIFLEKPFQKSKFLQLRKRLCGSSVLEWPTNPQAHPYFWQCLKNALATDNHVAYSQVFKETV
Outline: as §1

human TLR9 = target: T3, human TLR9 (Homo sapiens, UniProt Q9NR96); experiment: TLR9 inhibition reporter assay (HEK-Blue cells, SEAP reporter, ODN2006 stimulation); conditions: HEK-Blue cells overexpressing human TLR9, SEAP reporter, ODN2006 5 nM
T3 construct: host or cells: HEK-Blue cells (HEK293-derived reporter line)
T3 sequence (Q9NR96 26-1032): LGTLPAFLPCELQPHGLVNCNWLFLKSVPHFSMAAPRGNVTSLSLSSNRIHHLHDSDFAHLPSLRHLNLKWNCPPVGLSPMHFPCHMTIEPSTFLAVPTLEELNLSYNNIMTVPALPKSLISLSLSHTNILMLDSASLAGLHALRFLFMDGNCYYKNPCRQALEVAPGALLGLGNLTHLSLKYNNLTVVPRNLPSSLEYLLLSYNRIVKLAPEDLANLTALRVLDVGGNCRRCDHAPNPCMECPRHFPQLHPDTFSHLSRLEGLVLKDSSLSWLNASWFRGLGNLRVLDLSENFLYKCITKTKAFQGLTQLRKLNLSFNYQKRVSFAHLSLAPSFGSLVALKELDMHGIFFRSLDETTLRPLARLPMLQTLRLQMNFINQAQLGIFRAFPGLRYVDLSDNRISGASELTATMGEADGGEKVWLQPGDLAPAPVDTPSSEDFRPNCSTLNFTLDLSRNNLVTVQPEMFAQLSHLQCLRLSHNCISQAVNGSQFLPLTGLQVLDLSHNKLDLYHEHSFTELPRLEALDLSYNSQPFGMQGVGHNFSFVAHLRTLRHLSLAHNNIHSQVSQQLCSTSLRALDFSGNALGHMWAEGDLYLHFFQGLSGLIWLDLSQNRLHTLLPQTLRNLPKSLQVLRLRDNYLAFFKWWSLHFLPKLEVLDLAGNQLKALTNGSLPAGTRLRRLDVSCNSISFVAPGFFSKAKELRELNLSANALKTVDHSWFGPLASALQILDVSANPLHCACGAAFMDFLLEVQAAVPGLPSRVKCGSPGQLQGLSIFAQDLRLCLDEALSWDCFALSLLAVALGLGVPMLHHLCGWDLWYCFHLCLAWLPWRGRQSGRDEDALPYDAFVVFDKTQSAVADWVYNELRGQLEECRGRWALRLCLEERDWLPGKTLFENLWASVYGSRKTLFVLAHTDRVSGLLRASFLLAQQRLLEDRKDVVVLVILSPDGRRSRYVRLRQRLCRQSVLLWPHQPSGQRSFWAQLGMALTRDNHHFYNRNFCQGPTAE
Outline: as §1

| Structure (SMILES) | IC50 (human TLR8) | IC50 (human TLR7) | IC50 (human TLR9) |
| --- | --- | --- | --- |
| CC(C)c1c(-c2cnc3ncccn23)[nH]c2ccc(C3CCN(CC(=O)N(C)C)CC3)cc12 [Example 290, 2-(4-(2-(imidazo[1,2-a]pyrimidin-3-yl)-3-isopropyl-1H-indol-5-yl)piperidin-1-yl)-N,N-dimethylacetamide] | < 100 nM | 100 to 1000 nM | 1000 to 50000 nM |
| Cc1nc2c(-c3[nH]c4ccc(C5CCN(CC(=O)N(C)C)CC5)cc4c3C(C)C)ccc(C)n2n1 [Example 384, 2-(4-(2-(2,5-dimethyl-[1,2,4]triazolo[1,5-a]pyridin-8-yl)-3-isopropyl-1H-indol-5-yl)piperidin-1-yl)-N,N-dimethylacetamide] | 100 to 1000 nM | 1000 to 50000 nM | 1000 to 50000 nM |
| Cc1n[nH]c2nccc(-c3[nH]c4ccc(C5CCNCC5)cc4c3C(C)C)c12 [Example 227, 4-(3-isopropyl-5-(piperidin-4-yl)-1H-indol-2-yl)-3-methyl-1H-pyrazolo[3,4-b]pyridine] | < 100 nM | < 100 nM | 100 to 1000 nM |
| CC(C)c1c(-c2cc(C(F)(F)F)c3nccn3c2)[nH]c2ccc(C3CCN(CC(=O)N(C)C)CC3)cc12 [Example 372, 2-(4-(3-isopropyl-2-(8-(trifluoromethyl)imidazo[1,2-a]pyridin-6-yl)-1H-indol-5-yl)piperidin-1-yl)-N,N-dimethylacetamide] | < 100 nM | < 100 nM | 1000 to 50000 nM |
| CC(C)c1c(-c2ccnc3[nH]ncc23)[nH]c2ccc(C3CCNCC3F)cc12 (stereo not drawn) [Example 171, 4-(5-(3-fluoropiperidin-4-yl)-3-isopropyl-1H-indol-2-yl)-1H-pyrazolo[3,4-b]pyridine] | < 100 nM | < 100 nM | 1000 to 50000 nM |
| Cc1c(-c2[nH]c3ccc(C4CCN(C(=O)CN(C)C)CC4)cc3c2C(C)C)nn2ncnc2c1C [Example 453, 1-(4-(2-(7,8-dimethyl-[1,2,4]triazolo [1,5-b]pyridazin-6-yl)-3-isopropyl-1H-indol-5-yl)piperidin-1-yl)-2-(dimethylamino)ethan-1-one] | < 100 nM | < 100 nM | 1000 to 50000 nM |
| CNC(=O)CN1CCC(c2ccc3[nH]c(-c4ccn5nncc5c4)c(C(C)C)c3c2)CC1 [Example 303, 2-(4-(2-([1,2,3]triazolo[1,5-a]pyridin-5-yl)-3-isopropyl-1H-indol-5-yl)piperidin-1-yl)-N-methylacetamide] | 100 to 1000 nM | < 100 nM | 1000 to 50000 nM |
| Cc1nc2c(-c3[nH]c4ccc(C5CCNCC5)cc4c3C(C)C)ccc(C)n2n1 [Example 151, 8-(3-isopropyl-5-(piperidin-4-yl)-1H-indol-2-yl)-2,5-dimethyl-[1,2,4]triazolo[1,5-a]pyridine] | 100 to 1000 nM | 100 to 1000 nM | 100 to 1000 nM |

More lines, now with the values ahead:

| IC50 (human TLR8) | IC50 (human TLR7) | IC50 (human TLR9) | Structure (SMILES) |
| --- | --- | --- | --- |
| < 100 nM | < 100 nM | < 100 nM | CCN1CCC(N2CCC(c3ccc4[nH]c(-c5ccnc6[nH]ccc56)c(C)c4c3)CC2)CC1 [Example 811, 4-(5-(1′-ethyl-[1,4′-bipiperidin]-4-yl)-3-methyl-1H-indol-2-yl)-1H-pyrrolo[2,3-b]pyridine] |
| 100 to 1000 nM | < 100 nM | 1000 to 50000 nM | Cc1ccnc2[nH]cc(-c3[nH]c4ccc(C5CCN(C(=O)CN(C)C)CC5)cc4c3C(C)C)c12 [Example 458, 2-(dimethylamino)-1-(4-(3-isopropyl-2-(4-methyl-1H-pyrrolo[2,3-b]pyridin-3-yl)-1H-indol-5-yl)piperidin-1-yl)ethan-1-one] |
| < 100 nM | < 100 nM | 1000 to 50000 nM | COc1c(C)c(-c2[nH]c3ccc(C4CCN(C5CCOCC5)CC4)cc3c2C(C)C)nn2ncnc12 [Example 685, 6-(3-isopropyl-5-(1-(tetrahydro-2H-pyran-4-yl)piperidin-4-yl)-1H-indol-2-yl)-8-methoxy-7-methyl-[1,2,4]triazolo[1,5-b]pyridazine] |
| < 100 nM | < 100 nM | < 100 nM | CCc1c(-c2ccnc3[nH]ncc23)[nH]c2ccc(C3CCN(C4CCN(C(C)C)CC4)CC3)cc12 [Example 824, 4-(3-ethyl-5-(1′-isopropyl-[1,4′-bipiperidin]-4-yl)-1H-indol-2-yl)-1H-pyrazolo[3,4-b]pyridine] |
| < 100 nM | 100 to 1000 nM | 100 to 1000 nM | CC(C)c1c(-c2ccnc3[nH]ncc23)[nH]c2ccc(C3CCN(Cc4ccccc4OCCCN(C)C)CC3)cc12 [Example 921, 3-(2-((4-(3-isopropyl-2-(1H-pyrazolo[3,4-b]pyridin-4-yl)-1H-indol-5-yl)piperidin-1-yl)methyl)phenoxy)-N,N-dimethylpropan-1-amine] |
| < 100 nM | < 100 nM | 1000 to 50000 nM | CCN(C)CCC(=O)N1CCC(c2ccc3[nH]c(-c4cc(C)c5nnnn5c4)c(C(C)C)c3c2)CC1 [Example 625, 3-(ethyl(methyl)amino)-1-(4-(3-isopropyl-2-(8-methyltetrazolo[1,5-a]pyridin-6-yl)-1H-indol-5-yl)piperidin-1-yl)propan-1-one] |
